Data reported in US20060116390A1, “Hepatitis c virus inhibitors” (priority 2003, published 2006).
Read-outs that look alike come from different tables or passages of the source.

Tested on: HCV proteins in Rep5.1 cells (replicon cell line)
Assay: Inhibitory activity of HCV: cell-based ELISA in replicon cell line Rep5.1 (decrease of HCV proteins)
Design: species or system hepatitis C virus
Method in brief: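 Rep5.1 replicon cells (5000/well, DMEM-10 with 500 μg/ml G418) were given serially diluted drug 4 h after seeding. After 72 h, cells were fixed in methanol/acetone and HCV proteins detected by cell-based ELISA using replicon-specific patient plasma antibodies. IC50 is the concentration giving 50% protein decrease versus the no-drug control.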

[1] = Hepatitis C virus, 72 h, Rep5.1 cells, 72 hours with drug, concentration at which 50% of HCV proteins was decreased, Table 2, read-out: IC50
[2] = Hepatitis C virus, 72 h, Rep5.1 cells, 72 hours with drug, decrease of HCV proteins measured by HCV antibody, Table 1, read-out: Level (IC50 values classified)
[3] = Rep5.1 cells, 72 hours with drug, concentration at which 50% of HCV proteins was decreased, Table 2, read-out: IC50

Row | Structure (SMILES) | IC50 [1] [nM] | IC50 [2] [nM] | IC50 (Hepatitis C virus, 72 h) [nM] | IC50 (Hepatitis C virus, 72 h, read-out: Level (IC50 values classified)) [nM] | IC50 [3] [nM]
1 | CC1=C(C(=O)OCCOc2ccccc2)CNC(=S)N1 [Compound 163, 6-methyl-2-thioxo-1,2,3,4-tetrahydro-pyrimidine-5-carboxylic acid 2-phenoxy-ethyl ester] | 2500 | 1000 to 10000 |  |  | 
2 | COCC1NC(=S)NC(C)=C1C(=O)OCCc1ccsc1 (stereo not shown) [2″, 4-methoxymethyl-6-methyl-2-thioxo-1,2,3,4-tetrahydro-pyrimidine-5-carboxylic acid 2-thiophen-3-yl-ethyl ester] | 35000 | > 20000 |  |  | 
3 | COc1ccccc1CCOC(=O)C1=C(C)NC(=S)NC1CF (stereo not shown) [42′, 4-fluoromethyl-6-methyl-2-thioxo-1,2,3,4-tetrahydro-pyrimidine-5-carboxylic acid 2-(2-methoxy-phenyl)-ethyl ester] | 4100 | 1000 to 10000 |  |  | 
4 | CC(C)=CCOC(=O)C1=C(C)NC(=S)NC1 [Compound 53, 6-methyl-2-thioxo-1,2,3,4-tetrahydro-pyrimidine-5-carboxylic acid 3-methyl-but-2-enyl ester] |  |  | 6600 | 1000 to 10000 | 
5 | CC1=C(C(=O)OCc2cc(F)cc(F)c2)CNC(=S)N1 [Compound 134, 6-methyl-2-thioxo-1,2,3,4-tetrahydro-pyrimidine-5-carboxylic acid 3,5-difluoro-benzyl ester] | 600 | < 1000 |  |  | 
6 | CC1=C(C(=O)OCCc2ccc(F)cc2)C(CF)NC(=S)N1 (stereo not shown) [32′, 4-fluoromethyl-6-methyl-2-thioxo-1,2,3,4-tetrahydro-pyrimidine-5-carboxylic acid 2-(4-fluoro-phenyl)-ethyl ester] | 900 | < 1000 |  |  | 
7 | CC1=C(C(=O)OCc2nc3ccccc3n2C)CNC(=S)N1 [Compound 241, 6-methyl-2-thioxo-1,2,3,4-tetrahydro-pyrimidine-5-carboxylic acid 1-methyl-1H-benzoimidazol-2-ylmethyl ester] | 97000 | > 20000 |  |  | 
8 | COCC1=C(C(=O)OCc2ccccc2)CNC(=S)N1 [Compound 64, 6-methoxymethyl-2-thioxo-1,2,3,4-tetrahydro-pyrimidine-5-carboxylic acid benzyl ester] | 15000 | 10000 to 20000 |  |  | 
9 | C=CCC(C=C)OC(=O)C1=C(C)NC(=S)NC1 (stereo not shown) [Compound 55, 6-methyl-2-thioxo-1,2,3,4-tetrahydro-pyrimidine-5-carboxylic acid 1-vinyl-but-3-enyl ester] | 2500 | 1000 to 10000 |  |  | 
10 | CC1=C(C(=O)OCCCc2ccncc2)CNC(=S)N1 [Compound 13, 6-methyl-2-thioxo-1,2,3,4-tetrahydro-pyrimidine-5-carboxylic acid 3-pyridin-4-yl-propyl ester] | > 100000 | > 20000 |  |  | 
11 | COC(=O)C(C)(C)COC(=O)OCC1NC(=S)NC(C)=C1C(=O)OCCc1cccc(Cl)c1 (stereo not shown) [82″, 4-(2-methoxycarbonyl-2-methyl-propoxycarbonyloxymethyl)-6-methyl-2-thioxo-1,2,3,4-tetrahydro-pyrimidine-5-carboxylic acid 2-(3-chloro-phenyl)-ethyl ester] | 800 | < 1000 |  |  | 
12 | CC1=C(C(=O)OCCc2ccc(F)cc2)C(CO)NC(=S)N1 (stereo not shown) [5″, 4-hydroxymethyl-6-methyl-2-thioxo-1,2,3,4-tetrahydro-pyrimidine-5-carboxylic acid 2-(4-fluoro-phenyl)-ethyl ester] | 6000 | 1000 to 10000 |  |  | 
13 | COc1ccc(CSC(=O)C2=C(C)NC(=S)NC2)cc1 [Compound 121, 6-methyl-2-thioxo-1,2,3,4-tetrahydro-pyrimidine-5-carbothioic acid S-(4-methoxy-benzyl)ester] | 500 | < 1000 |  |  | 
14 | CC1=C(C(=O)OCc2cc([N+](=O)[O-])ccc2Cl)C(CF)NC(=S)N1 (stereo not shown) [83′, 4-fluoromethyl-6-methyl-2-thioxo-1,2,3,4-tetrahydro-pyrimidine-5-carboxylic acid 2-chloro-5-nitro-benzyl ester] | 5700 | 1000 to 10000 |  |  | 
15 | CC1=C(C(=O)OCCc2ccc(C)cc2)CNC(=S)N1 [Compound 173, 6-methyl-2-thioxo-1,2,3,4-tetrahydro-pyrimidine-5-carboxylic acid 2-p-tolyl-ethyl ester] | < 400 |  |  |  | 
16 | COc1ccccc1CCOC(=O)C1=C(C)NC(=S)NC1CO (stereo not shown) [9″, 4-hydroxymethyl-6-methyl-2-thioxo-1,2,3,4-tetrahydro-pyrimidine-5-carboxylic acid 2-(2-methoxy-phenyl)-ethyl ester] | 20000 | 10000 to 20000 |  |  | 
17 | CC1=C(C(=O)OCc2ccc(F)cc2)CNC(=S)N1 [Compound 61, 6-methyl-2-thioxo-1,2,3,4-tetrahydro-pyrimidine-5-carboxylic acid 4-fluoro-benzyl ester] | 800 | < 1000 |  |  | 
18 | CC1=C(C(=O)OC2Cc3cscc3C2)CNC(=S)N1 [11′, 6-methyl-2-thioxo-1,2,3,4-tetrahydro-pyrimidine-5-carboxylic acid 5,6-dihydro-4H-cyclopenta[c]thiophen-5-yl ester] | 77000 | > 20000 |  |  | 

Row | Structure (SMILES) | IC50 [1] [nM] | IC50 [2] [nM] | IC50 (Hepatitis C virus, 72 h) [nM] | IC50 (Hepatitis C virus, 72 h, read-out: Level (IC50 values classified)) [nM] | IC50 [3] [nM]
19 | CC1=C(C(=O)OCC2COc3ccccc3O2)CNC(=S)N1 (stereo not shown) [Compound 195, 6-methyl-2-thioxo-1,2,3,4-tetrahydro-pyrimidine-5-carboxylic acid 2,3-dihydro-benzo[1,4]dioxin-2-ylmethyl ester] | 2000 | 1000 to 10000 |  |  | 
20 | CC1=C(C(=O)OCCc2ccc(OCc3ccccc3)cc2)C(CO)NC(=S)N1 (stereo not shown) [27″, 4-hydroxymethyl-6-methyl-2-thioxo-1,2,3,4-tetrahydro-pyrimidine-5-carboxylic acid 2-(4-benzyloxy-phenyl)-ethyl ester] | 400 | < 1000 |  |  | 
21 | CC1=C(C(=O)OCCc2c[nH]c3ccccc23)CNC(=S)N1 [Compound 102, 6-methyl-2-thioxo-1,2,3,4-tetrahydro-pyrimidine-5-carboxylic acid 2-(1H-indol-3-yl)-ethyl ester] | 2000 | 1000 to 10000 |  |  | 
22 | CC1=C(C(=O)O[C@H](C)c2ccccc2)CNC(=S)N1 (racemic) [Compound 26, 6-methyl-2-thioxo-1,2,3,4-tetrahydro-pyrimidine-5-carboxylic acid (R,S)-1-phenyl-ethyl ester] |  |  |  |  | 3000
23 | CC1=C(C(=O)OC(C)Cc2ccsc2Br)C(CO)NC(=S)N1 (stereo not shown) [7″, 4-hydroxymethyl-6-methyl-2-thioxo-1,2,3,4-tetrahydro-pyrimidine-5-carboxylic acid 2-(2-bromo-thiophen-3-yl)-1-methyl-ethyl ester] | 7000 | 1000 to 10000 |  |  | 
24 | CC1=C(C(=O)OCCc2cccc(C(F)(F)F)c2)C(COC(=O)C(C)N)NC(=S)N1 (stereo not shown) [73″, 4-(2-amino-propionyloxymethyl)-6-methyl-2-thioxo-1,2,3,4-tetrahydro-pyrimidine-5-carboxylic acid 2-(3-trifluoromethyl-phenyl)-ethyl ester] | 400 | < 1000 |  |  | 
25 | CC1=C(C(=O)OCCc2cccc(C)c2)CNC(=S)N1 [Compound 172, 6-methyl-2-thioxo-1,2,3,4-tetrahydro-pyrimidine-5-carboxylic acid 2-m-tolyl-ethyl ester] | < 400 | < 1000 |  |  | 
26 | CC1=C(C(=O)OCc2ccccc2C)CNC(=S)N1 [Compound 231, 6-methyl-2-thioxo-1,2,3,4-tetrahydro-pyrimidine-5-carboxylic acid 2-methyl-benzyl ester] | 700 | < 1000 |  |  | 
27 | CC1=C(C(=O)OCc2cc(F)cc(F)c2)C(CO)NC(=S)N1 (stereo not shown) [71″, 4-hydroxymethyl-6-methyl-2-thioxo-1,2,3,4-tetrahydro-pyrimidine-5-carboxylic acid 3,5-difluoro-benzyl ester] | > 100000 | > 20000 |  |  | 
28 | CC1=C(C(=O)OCCc2ccsc2)[C@H](CF)NC(=S)N1 [24′, (R)-4-fluoromethyl-6-methyl-2-thioxo-1,2,3,4-tetrahydro-pyrimidine-5-carboxylic acid 2-thiophen-3-yl-ethyl ester] | 4400 | 1000 to 10000 |  |  | 
29 | CC1=C(C(=O)OCc2ccc(C)s2)CNC(=S)N1 [Compound 232, 6-methyl-2-thioxo-1,2,3,4-tetrahydro-pyrimidine-5-carboxylic acid 5-methyl-thiophen-2-ylmethyl ester] | 20000 | 10000 to 20000 |  |  | 
30 | CC1=C(C(=O)OCCc2ccc(C)s2)CNC(=S)N1 [Compound 258, 6-methyl-2-thioxo-1,2,3,4-tetrahydro-pyrimidine-5-carboxylic acid 2-(5-methyl-thiophen-2-yl)-ethyl ester] | < 400 | < 1000 |  |  | 
31 | CCC#CCCOC(=O)C1=C(C)NC(=S)NC1 [Compound 157, 6-methyl-2-thioxo-1,2,3,4-tetrahydro-pyrimidine-5-carboxylic acid hex-3-inyl ester] |  |  |  |  | 1000
32 | CC1=C(C(=O)OCCc2ccsc2)C(CCl)NC(=S)N1 (stereo not shown) [76′, 4-chloromethyl-6-methyl-2-thioxo-1,2,3,4-tetrahydro-pyrimidine-5-carboxylic acid 2-thiophen-3-yl-ethyl ester] | 62000 | > 20000 |  |  | 
33 | CC1=C(C(=O)OCc2ccc(Cl)cc2)C(CF)NC(=S)N1 (stereo not shown) [34′, 4-fluoromethyl-6-methyl-2-thioxo-1,2,3,4-tetrahydro-pyrimidine-5-carboxylic acid 4-chloro-benzyl ester] | 700 | < 1000 |  |  | 
34 | O=C(OCc1ccccc1)C1=CNC(=S)NC1 [Compound 44, 2-thioxo-1,2,3,4-tetrahydro-pyrimidine-5-carboxylic acid benzyl ester] | 3000 | 1000 to 10000 |  |  | 
35 | CC1=C(C(=O)OCCc2ccccc2C)CNC(=S)N1 [Compound 133, 6-methyl-2-thioxo-1,2,3,4-tetrahydro-pyrimidine-5-carboxylic acid 2-o-tolyl-ethyl ester] | < 400 | < 1000 |  |  | 
